≈ marks a conversion by molar mass, not a printed value. Where “and” joins values, the source holds several entries; their conditions need not be identical. Equal entries are not always repeated. Where two headings read alike, the source gives them in different places.
Columns and labels:
Lu1, lung cancer = assay: In vitro cytotoxicity, human tumor panel: Lu1; type: cell-based; conditions: Homo sapiens, read-out: ED50 Lu1
Method: (§1) Cytotoxicity assay. Compounds 1–9 were evaluated for cytotoxic activity against a panel of human cancer cell lines, including KB-V1 in the presence and absence of VLB, according to an established protocol (68).

CAKI-1, renal = assay: In vitro multidrug resistance modulation (DINIB synergy): CAKI-1; type: cell-based, human; conditions: increase of cytotoxicity of DINIB 1 × 10^−4 M; modulator μg/mL: verapamil 12.5, cyclosporin A 6.3, pervilleine B 12.5, C 3.1, D 50.0, F 25.0; <25 insignificant, >100 strong synergy
Text: (§2) Alkaloids 5–7 and 9 were further evaluated for their efficacy as potential modulators of P-glycoprotein. This assay assessed the ability of these test compounds to increase the cytotoxicity of an agent of the MDR phenotype {4,9-dihydro-3-iso-butyl-2-methyl-1-(p-nitrophenacyl)-4,9-dioxo-1H-naphth[2-3-d]imidazolium bromide (DINIB)}, compared with an agent not of the MDR phenotype (5-flurouracil), used as a negative control (73, 74).
(§3) In vitro multidrug resistance assay.

[1] = tested on: KB, oral epidermoid carcinoma; assay: In vitro cytotoxicity, human tumor panel: KB; type: cell-based; conditions: Homo sapiens, read-out: ED50 KB
Method: as §1

BC1, breast cancer = assay: In vitro cytotoxicity, human tumor panel: BC1; type: cell-based; conditions: Homo sapiens, read-out: ED50 BCI
Method: as §1

HCT-15, colon = assay: In vitro multidrug resistance modulation (DINIB synergy): HCT-15; type: cell-based, human; conditions: increase of cytotoxicity of DINIB 1 × 10^−4 M; modulator μg/mL: verapamil 12.5, cyclosporin A 6.3, pervilleine B 12.5, C 3.1, D 50.0, F 25.0; <25 insignificant, >100 strong synergy
Text: as §2, §3

Col2, colon cancer = assay: In vitro cytotoxicity, human tumor panel: Col2; type: cell-based; conditions: Homo sapiens, read-out: ED50 Col2
Method: as §1

KB-V1, drug resistant KB = assay: In vitro cytotoxicity, human tumor panel: KB-V1 with or without vinblastine; type: cell-based
Method: as §1

[2] = tested on: SW626, human ovarian adenocarcinoma; assay: In vitro cytotoxicity, human tumor panel: SW626; type: cell-based; conditions: SW626, read-out: ED50 SW626
Method: as §1

LOX IMVI, melanoma = assay: In vitro multidrug resistance modulation (DINIB synergy): LOX IMVI; type: cell-based, human; conditions: increase of cytotoxicity of DINIB 1 × 10^−4 M; modulator μg/mL: verapamil 12.5, cyclosporin A 6.3, pervilleine B 12.5, C 3.1, D 50.0, F 25.0; <25 insignificant, >100 strong synergy
Text: as §2, §3

UO-31, renal = assay: In vitro multidrug resistance modulation (DINIB synergy): UO-31; type: cell-based, human; conditions: increase of cytotoxicity of DINIB 1 × 10^−4 M; modulator μg/mL: verapamil 12.5, cyclosporin A 6.3, pervilleine B 12.5, C 3.1, D 50.0, F 25.0; <25 insignificant, >100 strong synergy
Text: as §2, §3

[3] = tested on: LNCaP, hormone-dependent prostate cancer; assay: In vitro cytotoxicity, human tumor panel: LNCaP; type: cell-based; conditions: Homo sapiens, LNCaP, read-out: ED50 LNCaP
Method: as §1

KB-8-5 cells [4] = assay: Reversal of MDR, cell survival assay: KB-8-5 with or without colchicine; type: cell-based, human; conditions: Homo sapiens
Method: (§4) Cytotoxic potential. The cytotoxic potential of test substances with KB-3, KB-V1 and KB-8-5 cells was determined as described previously (24). Briefly, various concentrations of test compounds (dissolved in 10 μl of 10% DMSO) were transferred to 96-well plates, and 190 μl aliquots of cell suspensions (5×10^4 cells/ml) were added to each well. The plates then were incubated for 72 hours at 37° C. (100% humidity with a 5% CO2 atmosphere in air), and 100 μl of cold 20% aqueous trichloroacetic acid were added to the growth medium in each well to fix the cells. The cultures were incubated at 4° C. for 30 minutes, washed, air-dried, stained with sulforhodamine B solution, and washed with 1% acetic acid. […] In each case, a zero-day control was performed by adding an equivalent number of cells to several wells and incubating at 37° C. for 30 minutes, and processing as described above. Optical density values obtained with the zero-day control were subtracted, and cell survival, relative to control (solvent-treated) cultures, was calculated. The cytotoxic potential of the compounds with CEM and CEM/VLB100 cells was determined as described by Beck et al. (30). Cells were grown in 24-well plates at a density of 5–6×10^5 cells/ml. At 48 hours, the cell number was determined using a Coulter Counter, with a channelizer to distinguish cells from debris.

CEM/VLB100 cells = assay: MDR reversal in drug-resistant human leukemia CEM/VLB100 cells; type: cell-based; conditions: Homo sapiens
Method: as §4

KB-3 cells = assay: Growth inhibitory potential (sulforhodamine B cell survival assay): KB-3; type: cell-based; conditions: Homo sapiens, KB3, 72 h, read-out: IC50 KB-3
Method: (§5) One part of a natural product drug discovery program involves monitoring the potential of plant extracts to reverse multiple drug resistance. […] To investigate the potential of plant extracts or compounds to reverse multidrug-resistance, KB-V1 cells are treated with different concentrations of plant extracts or compounds in the presence (1 μg/ml) or absence of vinblastine.
Cytotoxic potential. The cytotoxic potential of test substances with KB-3, KB-V1 and KB-8-5 cells was determined as described previously (24). Briefly, various concentrations of test compounds (dissolved in 10 μl of 10% DMSO) were transferred to 96-well plates, and 190 μl aliquots of cell suspensions (5×10^4 cells/ml) were added to each well. The plates then were incubated for 72 hours at 37° C. (100% humidity with a 5% CO2 atmosphere in air), and 100 μl of cold 20% aqueous trichloroacetic acid were added to the growth medium in each well to fix the cells. The cultures were incubated at 4° C. for 30 minutes, washed, air-dried, stained with sulforhodamine B solution, and washed with 1% acetic acid. Finally, 200 μl of 10 mM Tris base were added to each well and the optical densities were determined at 515 nm utilizing an ELISA plate reader. In each case, a zero-day control was performed by adding an equivalent number of cells to several wells and incubating at 37° C. for 30 minutes, and processing as described above. Optical density values obtained with the zero-day control were subtracted, and cell survival, relative to control (solvent-treated) cultures, was calculated. The cytotoxic potential of the compounds with CEM and CEM/VLB100 cells was determined as described by Beck et al. (30). Cells were grown in 24-well plates at a density of 5–6×10^5 cells/ml. At 48 hours, the cell number was determined using a Coulter Counter, with a channelizer to distinguish cells from debris.

KB-V1 cells [5] = assay: Reversal of MDR, cell survival assay: KB-V1 with or without vinblastine; type: cell-based, human
Method: as §5, §4

KB-8-5 cells [6] = assay: In vivo hollow fiber test: KB-8-5; set-up: species or system NCr nu/nu mice
Method: (§6) In vivo hollow fiber test. […] Confluent monolayers of KB-3, KB-V1 or KB-8-5 cells were harvested, collected by centrifugation and resuspended in conditioned medium at a concentration of 7.5×10^5 cells/ml.
(§7) Test compounds were administrated once daily by intraperitoneal injection from day 3–6 after implantation. Body weights were measure daily.
(§8) After incubating at 37° C. for 4 hours, the culture medium was aspirated and the samples were washed twice with normal saline containing 2.5% protamine sulfate solution by overnight incubation at 4° C. […] The formazan was extracted from each sample with DMSO (250 μl/well) for 4 hours at room temperature on a rotation platform.

KB-V1 cells [7] = assay: In vivo hollow fiber test: KB-V1; set-up: species or system NCr nu/nu mice
Method: as §6, §7, §8

[8] = summation of single-agent inhibitions
[9] = vinblastine 100 μg/kg + reversing agent 0.136 mmol/kg

## COc1cc(C=CC(=O)O[C@H]2C[C@@H]3C[C@H](OC(=O)Cc4ccccc4)C[C@H]2N3C)cc(OC)c1OC [Compound 9, 3α-phenylacetoxy-6β-(3,4,5-trimethoxycinnamoyloxy)-tropane]
Lu1, lung cancer
  IC50: > 20 µg/mL
CAKI-1, renal
  synergy value at a 95% confidence level, CAKI-1: 342.1
[1]
  IC50: > 20 µg/mL
BC1, breast cancer
  IC50: > 20 µg/mL
HCT-15, colon
  synergy value at a 95% confidence level, HCT-15: 714.7
other
  melting point: 59 to 61 °C
Col2, colon cancer
  IC50: 4.9 µg/mL (≈ 9.89 µM)
KB-V1, drug resistant KB; Homo sapiens, KB-V1, drug-resistant KB assessed in the absence of vinblastine, read-out: ED50 KB-V1−
  IC50: > 20 µg/mL
KB-V1, drug resistant KB; drug resistant KB assessed in presence of vinblastine (1 μg/mL)
  ED50 KB-V1+: 0.2 µg/mL
[2]
  IC50: > 20 µg/mL
LOX IMVI, melanoma
  synergy value at a 95% confidence level, LOX IMVI: 59.2
UO-31, renal
  synergy value at a 95% confidence level, UO-31: 364.4
[3]
  IC50: > 20 µg/mL

## COc1ccc(CCN(C)CCCC(C#N)(c2ccc(OC)c(OC)c2)C(C)C)cc1OC (centres unmarked) [verapamil, reference compound]
KB-8-5 cells [4]
  IC50: > 44 µM
CEM/VLB100 cells; CEM/VLB100, 48 h, read-out: IC50 Modulator only
  IC50: > 15 µM
CEM/VLB100 cells; CEM/VLB100, read-out: IC50 (Modulator + Daunorubicin)
  IC50: 0.5 µM
CEM/VLB100 cells; CEM/VLB100, read-out: IC50 (Modulator + Vinblastine)
  IC50: 0.025 µM
KB-3 cells
  IC50: 37 µM
KB-V1 cells [5]; Homo sapiens, KB-V1, 72 h, read-out: IC50 KB-V1 (+), presence of vinblastine (1 μg/ml), 72 hours
  IC50: 0.79 µM
KB-V1 cells [5]; Homo sapiens, KB-V1, 72 h, read-out: IC50 KB-V1 (−), absence of vinblastine, 72 hours
  IC50: > 44 µM
KB-V1 cells [5]; read-out: IC50 KB-V1 (−), absence of vinblastine, 72 hours
  IC50: 44 µM
KB-8-5 cells [6]; [8]
  Calculated inhibition (vinblastine + reversing agent as single agents), KB-8-5, i.p. site: 5.9%
  Calculated inhibition (vinblastine + reversing agent as single agents), KB-8-5, s.c. site: 3.7%
KB-8-5 cells [6]; [9]
  Observed inhibition from coadministration with vinblastine, KB-8-5, i.p. site: 52 (P < 0.0001) %
  Observed inhibition from coadministration with vinblastine, KB-8-5, s.c. site: 11.7 (P = 0.06) %
KB-8-5 cells [6]; vinblastine 100 μg/kg, reversing agents 0.136 mmol/kg
  Growth inhibition, single agent, KB-8-5, s.c. site: 1.4%
KB-8-5 cells [6]; vinblastine 100 μg/kg, reversing agents 0.136 mmol/kg, i.p. injection once daily days 3–6
  Growth inhibition, single agent, KB-8-5, i.p. site: 4.7%
KB-V1 cells [7]; KB-V1 or KB-8-5 cells in hollow fibers implanted into NCr nu/nu mice
  inhibition of cell growth when used in combination with vinblastine: less effective
KB-V1 cells [7]; [8]
  Calculated inhibition (vinblastine + reversing agent as single agents), KB-V1, i.p. site: 7.4% and 6.2%
  Calculated inhibition (vinblastine + reversing agent as single agents), KB-V1, s.c. site: 3.8% and 10.8%
KB-V1 cells [7]; vinblastine 250 μg/kg + reversing agent 0.136 mmol/kg
  Observed inhibition from coadministration with vinblastine, KB-V1, s.c. site: 7.8 (P = 0.73) % and 13.6 (P = 0.098) %
KB-V1 cells [7]; vinblastine 250 μg/kg + reversing agent 0.136 mmol/kg, i.p. injection once daily days 3–6
  Observed inhibition from coadministration with vinblastine, KB-V1, i.p. site: 60.3 (P < 0.0001) % and 56.6 (P < 0.0001) %

Source: patent US6989396B2, “Tropane alkaloid multidrug resistance inhibitors from Erythroxylum pervillei and use of the same” (The Board of Trustees of the University of Illinois, priority 2001, dated 2006)
